In patent US20260274894A1, “CYCLIC POLYPEPTIDE COMPOUND AND USE THEREOF” (BIVISION PHARMACEUTICALS, INC., priority 2023, published 2026):
Numbered stars: 1 amine (or outer) side, 2 acyl side, 3 side chain; on linkers, the order of the positions; unused ones are H or OH. Bridge positions count the residues as written; N and C are the ends. Square brackets hold non-standard residues; d marks the D form. Side chains are listed from the residue outwards. Peptide text beside a SMILES is read from it. * marks the point of attachment. ξ: configuration not given here. Acetyl(4-DOTA-piperazinyl) = O=C(O)CN1CCN(CC(=O)O)CCN(CC(=O)N2CCN(CC(=O)*)CC2)CCN(CC(=O)O)CC1; X2 = O=C(O)CN1CCN(CC(=O)O)CCN(CC(=O)N2CCN(CCCN*)CC2)CCN(CC(=O)O)CC1; X1 = O=C(O)CN1CCN(CC(=O)O)CCN(CC(=O)CCCN*)CCN(CC(=O)O)CC1; DOTA = O=C(O)CN1CCN(CC(=O)O)CCN(CC(=O)*)CCN(CC(=O)O)CC1; Azetidine3carboxylic = O=C(C1CN([*:1])C1)[*:2]; mXylylene = c1cc(C[*:1])cc(C[*:2])c1; Cha = N[C@@H](CC1CCCCC1)C(=O)O; Dab = NCC[C@H](N)C(=O)O; Dap = NC[C@H](N)C(=O)O; Aoc = NCCCCCCCC(=O)O; CO = O=C([*:1])[*:2]; ξP = O=C(O)C1CCCN1; ξC = NC(CS)C(=O)O; NHBu = CCCCN*

Tests used:
[1] = target: T1, fibroblast activation protein (FAP) (Homo sapiens, UniProt Q12884); test: Protease inhibition (selectivity) assay, FAP, Z-Gly-Pro-AMC substrate; type: biochemical; settings: recombinant human FAP 1.2 nM
T1 sequence (Q12884 1-760): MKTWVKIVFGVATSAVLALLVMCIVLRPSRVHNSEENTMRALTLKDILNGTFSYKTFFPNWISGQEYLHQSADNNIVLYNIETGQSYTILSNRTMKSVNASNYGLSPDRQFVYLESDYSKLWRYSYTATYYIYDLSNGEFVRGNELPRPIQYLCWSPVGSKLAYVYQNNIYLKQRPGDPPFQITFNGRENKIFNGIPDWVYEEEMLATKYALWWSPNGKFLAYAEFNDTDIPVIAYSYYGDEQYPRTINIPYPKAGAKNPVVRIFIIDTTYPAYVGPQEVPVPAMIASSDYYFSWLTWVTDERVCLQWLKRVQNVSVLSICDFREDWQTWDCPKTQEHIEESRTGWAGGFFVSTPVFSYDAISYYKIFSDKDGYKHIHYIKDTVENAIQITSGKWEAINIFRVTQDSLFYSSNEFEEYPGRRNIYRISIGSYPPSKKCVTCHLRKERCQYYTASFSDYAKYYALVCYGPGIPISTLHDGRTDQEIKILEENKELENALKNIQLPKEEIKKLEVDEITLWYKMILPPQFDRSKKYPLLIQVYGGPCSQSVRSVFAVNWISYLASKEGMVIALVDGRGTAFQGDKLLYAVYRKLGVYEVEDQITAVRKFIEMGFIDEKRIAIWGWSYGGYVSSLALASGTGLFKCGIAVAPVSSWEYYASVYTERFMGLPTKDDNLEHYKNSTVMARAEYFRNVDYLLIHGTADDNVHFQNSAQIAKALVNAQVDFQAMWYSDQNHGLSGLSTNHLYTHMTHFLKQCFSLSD
Experimental: (§1) The specificity of the synthesized compounds for recombinant human dipeptidyl peptidase IV (DPPIV), fibroblast activation protein (FAP), or prolyl oligopeptidase (PREP) was expressed by their half-maximal inhibitory concentration (IC50) against the proteases. […] No. I-1145.0050BA) in DMSO; DPPIV: 100 mM Gly-Pro-AMC (VWR, Cat. No. 100042-646) in DMSO), and the stock solution of the substrate was subsequently diluted 20-fold using the corresponding buffer described above. • 4) The enzyme was diluted into an appropriate assay buffer. […] Column 1 (A, B, C) was prepared using 200 μL of an appropriate analysis buffer as a control. Column 1 (D, E, F, G, H) was prepared with 20 μL of an appropriate assay buffer and 180 μL of the enzyme as the inhibitor-free control. • 5) Where appropriate, 20 μL of the test compound was added from the dilution plate prepared in step 2 to columns 2-10 of the assay plate. Each sample should be tested in triplicate. It was incubated at room temperature for 10 minutes, with the plate being shaken for the first two minutes. • 6) 10 μL of the 20× substrate prepared in step 3 was added to each well and incubated at room temperature for 15 minutes, with the plate being shaken for the first two minutes. • 7) Fluorescence was read at λex:380 and λem:460.

[2] = target: T2, prolyl oligopeptidase (PREP) (Homo sapiens, UniProt P48147); test: Protease inhibition (selectivity) assay, PREP, Z-Gly-Pro-AMC substrate; type: biochemical; settings: recombinant human PREP 0.6 nM
T2 sequence (P48147 1-710): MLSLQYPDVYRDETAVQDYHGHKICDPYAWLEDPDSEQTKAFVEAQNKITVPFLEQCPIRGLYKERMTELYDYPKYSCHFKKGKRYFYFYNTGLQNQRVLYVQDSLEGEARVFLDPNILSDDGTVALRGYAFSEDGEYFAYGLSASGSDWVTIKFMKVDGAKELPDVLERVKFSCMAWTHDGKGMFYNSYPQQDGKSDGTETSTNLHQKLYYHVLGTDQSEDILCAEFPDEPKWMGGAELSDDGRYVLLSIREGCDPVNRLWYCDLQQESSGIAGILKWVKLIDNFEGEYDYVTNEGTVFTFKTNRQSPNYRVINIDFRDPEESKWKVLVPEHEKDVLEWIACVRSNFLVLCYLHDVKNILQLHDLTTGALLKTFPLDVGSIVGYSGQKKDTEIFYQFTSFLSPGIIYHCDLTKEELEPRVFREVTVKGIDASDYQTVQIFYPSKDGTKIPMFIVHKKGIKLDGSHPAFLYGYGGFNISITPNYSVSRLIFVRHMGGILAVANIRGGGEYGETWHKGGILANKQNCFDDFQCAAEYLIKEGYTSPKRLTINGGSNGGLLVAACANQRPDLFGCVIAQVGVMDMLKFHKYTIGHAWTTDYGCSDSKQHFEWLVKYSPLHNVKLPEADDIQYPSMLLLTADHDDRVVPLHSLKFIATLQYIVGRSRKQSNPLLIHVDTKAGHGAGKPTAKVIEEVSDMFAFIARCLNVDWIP
Experimental: as §1

FAP protein = target: T3, FAP protein (Homo sapiens, UniProt Q12884); test: Biacore test of compound affinity to FAP protein; settings: Biacore 8K, SA chip, 15° C., 1:1 binding model; read-out: pKD (FAP) (converted)
T3 construct: purchased Sinobiological
T3 sequence (Q12884 1-760): T1 sequence (Q12884 1-760)
In short: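 FAP captured on an SA chip; compounds run as analyte in single-cycle kinetics at 15° C (90 s contact, 1800 s dissociation, 30 μL/min), reference-subtracted (2-1). Sensorgrams fitted to a 1:1 binding model to give KD, reported as pKD = −log KD.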

[3] = target: dipeptidyl peptidase IV (DPPIV) (Homo sapiens, UniProt P27487); test: Protease inhibition (selectivity) assay, DPPIV, Gly-Pro-AMC substrate; type: biochemical; settings: recombinant human DPPIV 0.1 nM; read-out: pIC50 (DPPIV) (converted)
Sequence of dipeptidyl peptidase IV (DPPIV) (P27487 whole entry): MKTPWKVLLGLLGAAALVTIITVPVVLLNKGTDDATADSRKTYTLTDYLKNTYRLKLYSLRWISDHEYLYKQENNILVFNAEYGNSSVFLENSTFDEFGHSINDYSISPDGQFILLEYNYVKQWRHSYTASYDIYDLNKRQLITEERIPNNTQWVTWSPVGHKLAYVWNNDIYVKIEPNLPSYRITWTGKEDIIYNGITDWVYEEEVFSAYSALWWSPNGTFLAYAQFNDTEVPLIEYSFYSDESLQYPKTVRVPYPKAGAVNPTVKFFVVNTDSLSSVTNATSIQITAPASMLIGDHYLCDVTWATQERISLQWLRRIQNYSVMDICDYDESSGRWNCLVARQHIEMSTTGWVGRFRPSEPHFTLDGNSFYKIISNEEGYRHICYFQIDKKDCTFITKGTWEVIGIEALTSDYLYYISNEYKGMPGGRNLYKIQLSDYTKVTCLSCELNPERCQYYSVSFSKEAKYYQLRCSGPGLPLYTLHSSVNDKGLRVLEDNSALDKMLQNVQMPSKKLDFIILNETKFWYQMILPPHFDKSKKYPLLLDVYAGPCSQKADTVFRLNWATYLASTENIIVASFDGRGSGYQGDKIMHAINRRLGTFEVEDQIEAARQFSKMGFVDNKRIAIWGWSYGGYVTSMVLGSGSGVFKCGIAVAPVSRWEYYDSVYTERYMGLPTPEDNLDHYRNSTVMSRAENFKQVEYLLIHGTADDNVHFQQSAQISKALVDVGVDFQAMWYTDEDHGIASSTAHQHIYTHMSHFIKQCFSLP
Experimental: as §1

[4] = Animal body weight after injection of ^177Lu-labeled compound; settings: Day 2
Experimental: 6- to 8-week-old (Balb/c Nude) mice were subcutaneously inoculated on the right scapula with 2×10^6 cells of HT1080 2 # (50% o Matrigel, Corning). When the tumors grew to the size as required by the assay, the animals were randomly assigned to 13 experimental groups based on tumor volume, with 5 animals per group. The body weight and tumor size were measured. On the day of grouping, administration was initiated for the control group (normal saline) and groups 1-12. General health and appearance were observed daily after the experiment began. Body weight and tumor size were measured prior to each sample collection time point. Any abnormal observations found during the entire study period were required to be recorded in the raw data.

Row | SMILES | IC50 [1] [nM] | IC50 [2] [nM] | Kd (FAP protein) [nM] | IC50 [3] [nM] | Animal body weight [4] [g]
1 | CCCCNC(=O)N[C@H]1CSCc2cccc(c2)CSC[C@@H](C(=O)N[C@@H](CCC(=O)NCCCN2CCN(C(=O)CN3CCN(CC(=O)O)CCN(CC(=O)O)CCN(CC(=O)O)CC3)CC2)C(=O)O)NC(=O)[C@H](Cc2ccccc2)NC(=O)[C@H](CCC(N)=O)NC(=O)[C@H]([C@@H](C)O)NC(=O)C2CCCN2C(=O)C2CN(C2)C1=O (stereo partly drawn) [JHDC48, nBu-urea-[Cys(3MeBn)-hhy39-Pro-Thr-Gln-Phe-Cys]-Glu-(aminopropylpiperazine-DOTA)-OH] ({NHBu-CO}-C[Azetidine3carboxylic][ξP]TQFCE(X2)-OH; linker 1-7 via mXylylene) | < 10 | > 1000 | 10 to 100 | > 1000 | 
2 | CCCCNC(=O)N[C@H]1CSCc2cccc(c2)CSCC(C(=O)N[C@@H](CCNC(=O)CNC(=O)CN2CCN(CC(=O)O)CCN(CC(=O)O)CCN(CC(=O)O)CC2)C(=O)O)NC(=O)[C@H](CC2CCCCC2)NC(=O)[C@H](CCC(N)=O)NC(=O)[C@H]([C@@H](C)O)NC(=O)[C@@H]2CCCN2C(=O)C2CN(C2)C1=O (stereo partly drawn) [JHDC56, nBu-urea-[Cys(3MeBn)-hhy39-Pro-Thr-Gln-hhy34-Cys]-DABA-(Gly-DOTA)-OH] | < 10 | > 1000 | < 10 | > 1000 | 
3 | CCCCNC(=O)N[C@H]1CSCc2cccc(c2)CSCC(C(=O)N[C@@H](CCNC(=O)CCCCCCCNC(=O)CN2CCN(CC(=O)O)CCN(CC(=O)O)CCN(CC(=O)O)CC2)C(=O)O)NC(=O)[C@H](CC2CCCCC2)NC(=O)[C@H](CCC(N)=O)NC(=O)[C@H]([C@@H](C)O)NC(=O)C2CCCN2C(=O)C2CN(C2)C1=O (stereo partly drawn) [JHDC53, nBu-urea-[Cys(3MeBn)-hhy39-Pro-Thr-Gln-hhy34-Cys]-DABA-(AOA-DOTA)-OH] ({NHBu-CO}-C[Azetidine3carboxylic][ξP]TQ[Cha][ξC][Dab]([Aoc-DOTA])-OH; linker 1-7 via mXylylene) | < 10 | > 1000 | 10 to 100 | > 1000 | 
4 | CCCCNC(=O)N[C@H]1CSCc2cccc(c2)CSCC(C(=O)N[C@@H](CNC(=O)CN2CCN(C(=O)CN3CCN(CC(=O)O)CCN(CC(=O)O)CCN(CC(=O)O)CC3)CC2)C(=O)O)NC(=O)[C@H](CC2CCCCC2)NC(=O)[C@H](CCC(N)=O)NC(=O)[C@H]([C@@H](C)O)NC(=O)C2CCCN2C(=O)C2CN(C2)C1=O (stereo partly drawn) [JHDC47, nBu-urea-[Cys(3MeBn)-hhy39-Pro-Thr-Gln-hhy34-Cys]-DAPA-(Ac-piperazine-DOTA)-OH] ({NHBu-CO}-C[Azetidine3carboxylic][ξP]TQ[Cha][ξC][Dap](Acetyl(4-DOTA-piperazinyl))-OH; linker 1-7 via mXylylene) | < 10 | > 1000 | < 10 | > 1000 | 
5 | CCCCNC(=O)N[C@H]1CSCc2cccc(c2)CSC[C@@H](C(=O)N[C@@H](CCC(=O)NCCCC(=O)CN2CCN(CC(=O)O)CCN(CC(=O)O)CCN(CC(=O)O)CC2)C(=O)O)NC(=O)[C@H](Cc2ccccc2)NC(=O)[C@H](CCC(N)=O)NC(=O)[C@H]([C@@H](C)O)NC(=O)[C@@H]2CCCN2C(=O)C2CN(C2)C1=O [JHDC24, nBu-urea-[Cys(3MeBn)-hhy39-Pro-Thr-Gln-Phe-Cys]-Glu-(EDA-DOTA)-OH] ({NHBu-CO}-C[Azetidine3carboxylic]PTQFCE(X1)-OH; linker 1-7 via mXylylene) | < 10 | > 1000 | 10 to 100 | > 1000 | 
6 | CCCCNC(=O)N[C@H]1CSCc2cccc(c2)CSCC(C(=O)N[C@@H](CNC(=O)CN2CCN(C(=O)CN3CCN(CC(=O)O)CCN(CC(=O)O)CCN(CC(=O)O)CC3)CC2)C(=O)O)NC(=O)[C@H](CC2CCCCC2)NC(=O)[C@H](CCC(N)=O)NC(=O)[C@H]([C@@H](C)O)NC(=O)C2CCCN2C(=O)C2CN(C2)C1=O (stereo partly shown) [^177Lu-JHDC47, metal not drawn] ({NHBu-CO}-C[Azetidine3carboxylic][ξP]TQ[Cha][ξC][Dap](Acetyl(4-DOTA-piperazinyl))-OH; linker 1-7 via mXylylene) |  |  |  |  | 16.00 ± 0.54
7 | CCCCCC(=O)N[C@H]1CSCc2cccc(c2)CSC[C@@H](C(=O)N[C@@H](CCC(=O)NCCNC(=O)CN2CCN(CC(=O)O)CCN(CC(=O)O)CCN(CC(=O)O)CC2)C(=O)O)NC(=O)[C@H](Cc2ccccc2)NC(=O)[C@H](CCC(N)=O)NC(=O)[C@H]([C@@H](C)O)NC(=O)[C@@H]2CCCN2C(=O)C2CN(C2)C1=O [JHDC23, Hex[Cys(3MeBn)-hhy39-Pro-Thr-Gln-Phe-Cys]-Glu-(EDA-DOTA)-OH] | < 10 | > 1000 | 10 to 100 | > 1000 | 
